21 compounds from ChEMBL document CHEMBL4433248, “SAR studies in the sulfonyl carboxamide class of HBV capsid assembly modulators” (Bioorg Med Chem Lett, 2019) can be followed below.

The structures appear in SMILES notation.

The nature of series [1]: Cytotoxicity against human HepG2.2.15 cells assessed as reduction in cell viability incubated for 3 days followed by replacement of fresh medium containing compound and measured after 3 days by cell titer glo-based luminescence assay. Details: species or system HepG2 2.2.15. For orientation: Cellular ATP, detected with luciferase, serves as a proxy for viable cell number.

Series [2] is described as follows: Half life in human hepatocytes. The series is classed as ADME, cell-based, Hepatocyte.
The test system of series [3] is Hepatitis B virus. Put plainly: Antiviral activity against Hepatitis B virus infected in naive HBeAg positive patients assessed as log10 reduction in HBV DNA at 600 mg bid. It is filed as functional.
Series [4] can be described thus: Lipophilicity, log P of the compound. It is filed as physicochemical. The following applies: octanol/water.
Series [5] is described as follows: Half life in human at 200 mg. The series is classed as ADME.
The nature of series [6]: Ratio of drug concentration in liver to plasma of CD1 mouse. The series is classed as ADME.
Series [7] in a line: Volume of distribution at steady state in CD1 mouse at 10 mg/kg, po or 2 mg/kg, iv. It is filed as ADME, organism-based. Conditions: in vivo, read-out: Vdss.
The nature of series [8]: Clearance in Mongrel dog at 3 mg/kg, po or 1 mg/kg, iv. It is filed as ADME, organism-based, Canis lupus familiaris. The following applies: in vivo.
Series [9] is described as follows: Oral bioavailability in Mongrel dog at 3 mg/kg. It is filed as ADME, organism-based, Canis lupus familiaris. The following applies: in vivo.
Series [10] is described as follows: Half life in Sprague-Dawley rat hepatocytes. The series is classed as ADME, cell-based, Hepatocyte.
Series [11] in a line: Volume of distribution at steady state in Mongrel dog at 3 mg/kg, po or 1 mg/kg, iv. The following applies: in vivo, read-out: Vdss. It is filed as ADME, organism-based, Canis lupus familiaris.
A short description of series [12]: Stability in human hepatocytes. It is filed as ADME, cell-based, Hepatocyte.
The nature of series [13]: Volume of distribution at steady state in Sprague-Dawley rat at 10 mg/kg, po or 2 mg/kg, iv. The series is classed as ADME, organism-based. Conditions: in vivo, read-out: Vdss.
A short description of series [14]: Clearance in Sprague-Dawley rat at 10 mg/kg, po or 2 mg/kg, iv. The following applies: in vivo. It is filed as ADME, organism-based.
A short description of series [15]: Half life in Mongrel dog at 3 mg/kg, po or 1 mg/kg, iv. The series is classed as ADME, organism-based, Canis lupus familiaris. Conditions: in vivo.
The nature of series [16]: Half life in Sprague-Dawley rat at 10 mg/kg, po or 2 mg/kg, iv. The series is classed as ADME, organism-based. The following applies: in vivo.
A short description of series [17]: Oral bioavailability in CD1 mouse at 10 mg/kg. The series is classed as ADME, organism-based. Conditions: in vivo.
A short description of series [18]: Half life in CD1 mouse hepatocytes. It is filed as ADME, cell-based, Hepatocyte.
Series [19] has as its system Hepatitis B virus. Put plainly: Ratio of EC50 for antiviral activity against Hepatitis B virus infected in human HepG2.2.15 cells in presence of 40% normal human serum to EC50 for antiviral activity against Hepatitis B virus infected in human HepG2.2.15 cells in absence of 40% normal human serum. It is filed as functional.
Series [20] in a line: Clearance in CD1 mouse at 10 mg/kg, po or 2 mg/kg, iv. Conditions: in vivo. It is filed as ADME, organism-based.
A short description of series [21]: Half life in CD1 mouse at 10 mg/kg, po or 2 mg/kg, iv. It is filed as ADME, organism-based. The following applies: in vivo.
A short description of series [22]: Half life in Mongrel dog hepatocytes. It is filed as ADME, cell-based, Canis lupus familiaris, Hepatocyte.
Series [23] can be described thus: Solubility of the compound in DMSO. It is filed as physicochemical.
Series [24] in a line: AUC in CD1 mouse plasma at 5 mg/kg. The series is classed as ADME, organism-based. The following applies: in vivo.
A short description of series [25]: AUC in CD1 mouse liver at 5 mg/kg. It is filed as ADME, organism-based. The following applies: in vivo.

One may read the CC50 as the concentration giving 50% cytotoxicity. `O=C(Nc1ccc(F)c(Cl)c1)c1ccc(F)c(S(=O)(=O)N2CCCC(O)CC2)c1` (stereo not drawn): the CC50 at 72 h in series [1] came out at 29 µM.
Still for that read-out and setting: the figure for `CC(O)C1CCCCN(S(=O)(=O)c2cc(C(=O)Nc3ccc(F)c(Cl)c3)ccc2F)C1` (stereo not drawn) is 2.6 µM.
Broadly, the half-life is the time needed for the level to fall by half in the phase considered. Low readings indicate rapid decline, high ones slow decline. With `O=C(Nc1ccc(F)c(Cl)c1)c1ccc(F)c(S(=O)(=O)N2CCCCC(O)C2)c1` (stereo not drawn), the CC50 at 72 h in [1] is 15 µM. Also, the half-life in series [2] is 0.817 h.
For `O=C(Nc1ccc(F)c(Cl)c1)c1ccc(F)c(S(=O)(=O)N2CCCCC(O)CC2)c1` (stereo not drawn), in [1], the CC50 at 72 h came to 24 µM. This compound displayed a half-life in series [2] of 0.0833 h.
For `O=C(Nc1ccc(F)c(Cl)c1)c1ccc(F)c(S(=O)(=O)N2CCCCC(CO)C2)c1` (stereo not drawn), in series [1], the CC50 at 72 h was found to be 3.1 µM.
Consider `CC1(O)COCCN(S(=O)(=O)c2cc(C(=O)Nc3ccc(F)c(Cl)c3)ccc2F)C1` (stereo not drawn), for which, in series [1], the CC50 at 72 h lay in the range of 7.1 to 15 µM. Besides, the half-life in [2] came out at 1.28 h.
As to `O=C(Nc1ccc(F)c(Cl)c1)c1ccc(F)c(S(=O)(=O)N2CCOCC(F)C2)c1` (stereo not drawn), the CC50 at 72 h in [1] came to 15 µM.
Same read-out and setting: the value for `O=C(Nc1ccc(F)c(Cl)c1)c1ccc(F)c(S(=O)(=O)N2CCSCC(O)C2)c1` (stereo not drawn) was 19 µM; that for `O=C(Nc1ccc(F)c(Cl)c1)c1ccc(F)c(S(=O)(=O)N2CCCCC(F)(F)C2)c1` was 11 µM.
Same read-out and setting: the value for `COC1COCCN(S(=O)(=O)c2cc(C(=O)Nc3ccc(F)c(Cl)c3)ccc2F)C1` (stereo not drawn) was 8.7 µM; that for `CN1CCN(S(=O)(=O)c2cc(C(=O)Nc3ccc(F)c(Cl)c3)ccc2F)CC(O)C1` (stereo not drawn) was 31 µM.
The term logP denotes the decadic logarithm of the partition coefficient of the neutral form, usually between octanol and water. The Kp is tissue or fluid exposure divided by exposure in the circulation. As to `O=C(Nc1cc(F)c(F)c(F)c1)c1ccc(F)c(S(=O)(=O)N2CCC(O)CC2)c1`, the Activity in series [3] is 1.7 log10IU/ml. Besides, the logP in series [4] is 3.2. The half-life in series [5] was 15 to 19 h. For the same compound, the Kp in series [6] amounted to 6.
Turning to `CC1(O)CCCN(S(=O)(=O)c2cc(C(=O)Nc3ccc(F)c(Cl)c3)ccc2F)CC1` (stereo not drawn), the CC50 at 72 h in series [1] was 11 µM.
The same measure, in the same setting: the figure for `O=C(Nc1ccc(F)c(Cl)c1)c1ccc(F)c(S(=O)(=O)N2CCOC[C@@H](O)C2)c1` is 14 µM.
Same read-out and setting: the value for `CC1(O)CCCCN(S(=O)(=O)c2cc(C(=O)Nc3ccc(F)c(Cl)c3)ccc2F)C1` (stereo not drawn) was 10 µM.
On to `O=C(Nc1ccc(F)c(Cl)c1)c1ccc(F)c(S(=O)(=O)N2CCCCCC(O)C2)c1` (stereo not drawn), for which the CC50 at 72 h in [1] worked out at 11 µM. The compound also gave a half-life in [2] of 0.267 h.
As a reminder, the bioavailability is the share of a dose that reaches the circulation, judged against a reference dose that is usually intravenous. Read a high bioavailability as good availability. Regarding `O=C(Nc1ccc(F)c(Cl)c1)c1ccc(F)c(S(=O)(=O)N2CCOC[C@H](O)C2)c1`, the results for the Vd in series [7], in series [11] and in series [13] were 4.1 L/kg, 1.3 L/kg and 3.3 L/kg, respectively. The values for the clearance in series [8], in [14] and in series [20] were 5.4 mL/min/kg, 88 mL/min/kg and 28 mL/min/kg, respectively. The bioavailability came out at 53% in series [9] and 78% in series [17]. In addition, the CC50 at 72 h in series [1] was 19 µM. For the same compound, the half-life in series [10] is 0.467 h; in series [15], 4.6 h; in series [16], 0.6 h; in [18] it was 0.8 h; in [21], 2.6 h; in series [22], 4.63 h. In addition, the Stability entry in series [12] is given as “Stable”. The logP in series [4] (read-out: logP) turned out to be 2.6. In addition, the Kp in series [6] was 15. The “Ratio EC50” value in series [19] is given as 6.
On to `CN1CCCN(S(=O)(=O)c2cc(C(=O)Nc3ccc(F)c(Cl)c3)ccc2F)CC1=O`, for which the solubility entry in series [23] is reported as “Insoluble”. Further, the CC50 at 72 h in series [1] is greater than 100 µM.
For orientation: AUC means the area under the concentration-time curve, a measure of exposure. Read a low AUC as low exposure. Consider `O=C(Nc1ccc(F)c(Cl)c1)c1ccc(F)c(S(=O)(=O)N2C[C@H](O)CC[C@H](O)C2)c1`, for which the Vd in series [7] was 4.1 L/kg; in series [11], 1.3 L/kg. Also, the clearance is 6.4 mL/min/kg in series [8] and 34 mL/min/kg in series [20]. The bioavailability in series [9] was 22%; in series [17], 12%. Also, the half-life in series [10] was 0.467 h; in series [2], 8.58 h; in series [15] it was 4.6 h; in series [18], 3.72 h; in series [21], 3.2 h; in series [22] it was 3.23 h. Further, the AUC amounted to 0.73 µM·h in [24] and 55.4 µM·h in series [25]. Moreover, the logP in [4] (read-out: logP) is 2.9. Further, in series [6], the Kp is 76.
Turning to `O=C(Nc1ccc(F)c(Cl)c1)c1ccc(F)c(S(=O)(=O)N2CCCCCCC2O)c1` (stereo not drawn), the CC50 at 72 h in series [1] was found to be 7 µM.
`O=C(Nc1ccc(F)c(Cl)c1)c1ccc(F)c(S(=O)(=O)N2CCOCC(O)C2)c1` (racemic): the CC50 at 72 h in series [1] lay within 7.1 to 15 µM. In series [2], this compound yielded a half-life of 4.63 h.
